Data on 24 compounds can be found in patent publication US4556676A, “Antidepressant derivatives of trans-4-phenyl-1,2,3,4-tetrahydro-1-naphthalenamine” (priority 1980, dated 1985).

A word on the IC50: it is the point on the concentration scale where inhibition reaches its midpoint. Read a high IC50 as lower potency.

Molecules are shown by their SMILES. Structures can show the parent of a compound that is named as a salt. Where two headings read alike, the source gives them in different places.

In one assay the test system is mice. Put plainly: Reduction of behavioral despair in vivo (modified Porsolt mouse swim test). Details: species or system Swiss-Webster CD male mice. The following applies: sc, read-out: MPE50.
Assay [1] has as its system 5-hydroxytryptophan-induced tremors. Put plainly: Potentiation of 5-hydroxytryptophan-induced behavioral symptoms (tremors) in vivo. Also on record: species or system Swiss-Webster CD male mice. The following applies: for ED50: Mus musculus; for ED50 (tremors): then 100 mg./kg. i.p. 5HTP one hour later, Hydrochloride.
Protocol: The mice were rated for the presence of this symptom by a "blinded observer" at 10-20 min. after 5HTP treatment.
Assay [2] concerns synaptosomal uptake of dopamine (DA). As to the kind of experiment: Blockade of synaptosomal uptake of dopamine (DA) in vitro, rat corpus striatum. The assay is classed as biochemical, Sprague-Dawley CD male rats. The following applies: rat corpus striatum synaptosomes. On the procedure: (§1) Sprague-Dawley CD male rats weighing 180-220 g. (Charles River Laboratories, Inc.; Wilmington, Mass.) were used in this procedure. A crude synaptosomal fraction of rat corpus striatum (for 5HT and DA uptake) or hypothalmus (for NE uptake) tissue was prepared by homogenizing tissue (25 ml./g. wet) in ice-cold 0.32M sucrose containing 1 mg./ml. glucose, 0.0001M EDTA and tris(hydroxymethyl)aminomethane to pH 7.4. The homogenate was centrifuged at 1000×g for 10 min. at 0°-4° C., the pellet discarded and the supernatant centrifuged at 17,000×g for 20 min. at 0°-4° C. The resulting pellet was resuspended in the ice-cold 0.32M sucrose pH 7.4 solution at 10 ml./g. original tissue (wet) for corpus striatum and 5 ml./g. original tissue (wet) for hypothalmus. […] Duplicate 0.1 ml. aliquots of the tissue suspension were incubated for 10 min. at 37° C. with 0.02 ml. of a solution containing a known quantity of the named test compound and 1.0 ml. of the incubation buffer containing additionally 1 mg./ml. glucose and 0.0001 mM labeled monoamine (^14 C-5HT, ^14 C-DA or ^3 H-NE). After incubation, the mixtures were filtered through 0.45 micron Millipore filters and the filters washed with the incubation buffer. […] Uptake was calculated as picomoles 5HT, DA or NE per mg. protein (protein was determined by measurement with Folin phenol reagent).

The subject of assay [3] is synaptosomal uptake of norepinephrine (NE). As to the kind of experiment: Blockade of synaptosomal uptake of norepinephrine (NE) in vitro, rat hypothalmus. It is filed as biochemical, Sprague-Dawley CD male rats. The following applies: rat hypothalmus synaptosomes. On the procedure:
as §1

The test system of assay [4] is synaptosomal uptake of serotonin (5HT). As to the kind of experiment: Blockade of synaptosomal uptake of serotonin (5HT) in vitro, rat corpus striatum. The following applies: rat corpus striatum synaptosomes, 5HT uptake. The assay is classed as biochemical, Sprague-Dawley CD male rats. How it is done:
as §1

Another assay relates to uptake of serotonin. The following applies: known drugs; cited from earlier work.
The mark [5] stands for this setting: mice, oral, no observed tremors at 32 mg./kg., highest dose tested, read-out: ED50 (tremors), footnoted.
Setting [6] is: mice, subcutaneous, 1 hour before test.
Where [7] appears, read: po, 1 h, read-out: ED50 (tremors), mice, oral, then 100 mg./kg. i.p. 5HTP one hour later.

Protocol for mice: A number of Swiss-Webster CD male mice weighing 25-30 g. (Charles River Laboratories, Inc.; Wilmington, Mass.) were housed under standard laboratory conditions for at least one week prior to experimentation. […] One hour later the mice were placed individually in 1 liter beakers containing 7 cm. of 25° C. water. Beginning at 2 min. after immersion, each mouse was observed every 30 sec. for the presence of immobility, characterized as floating motionless in the water. A total of ten observations were made, each being scored as "0=animal moving, swimming, attempting to escape" or "1=animal immobile". The number of positive observations for each mouse was then totaled and a mean immobility score calculated for the group of ten.

As for `CN[C@@H]1CC[C@@H](c2ccc(Cl)c(Cl)c2)c2ccccc21` (relative stereo) [Example 1, Trans-(1S)(1R)-N-methyl-4-(3,4-diclorophenyl)-1,2,3,4-tetrahydro-1-naphthalenamine Hydrochloride], the ED50 with mice (1 h) is 1.5 mg/kg; in assay [1] (po, 1 h, read-out: ED50 (oral dosage level at which tremors elicited), mice, oral, then 100 mg./kg. i.p. 5HTP one hour later, tremors) it was 3.2 to 10 mg/kg.

Take `CN[C@@H]1CC[C@@H](c2ccc(Cl)cc2)c2ccccc21.Cl` (relative stereo) [Example 4, Trans-N-methyl-4-(4-chlorophenyl)-1,2,3,4-tetrahydro-1-naphthalenamine Hydrochloride]: in assay [1] (mice, oral), the “ED50 (tremors)” value was 10-32 mg./kg. - oral. The IC50 in assay [2] (Hydrochloride) is 110 nM.

For `CN[C@@H]1CC[C@@H](c2ccc(Cl)cc2)c2ccccc21.Cl` (relative stereo) [Example 5, Trans-N-methyl-4-(4-chlorophenyl)-1,2,3,4-tetrahydro-1-naphthalenamine Hydrochloride], the ED50 in assay [1] (setting [5]) is greater than 32 mg/kg.

Consider `CN[C@@H]1CC[C@@H](c2ccc(Cl)cc2)c2ccccc21.Cl` (relative stereo) [Example 6, Trans-N-methyl-4-(4-chlorophenyl)-1,2,3,4-tetrahydro-1-naphthalenamine Hydrochloride], for which the ED50 with mice (setting [6]) was 0.88 mg/kg. The “ED50 (tremors)” value in assay [1] (mice, oral) is listed as 3.2-10 mg./kg. - oral.

In the case of `CN[C@@H]1CC[C@@H](c2ccc(F)cc2)c2ccccc21` (relative stereo) [Example 7, Trans-(1S)(1R)-N-methyl-4-(4-fluorophenyl)-1,2,3,4-tetrahydro-1-naphthalenamine Hydrochloride], the ED50 in the assay with mice (1 h) is 2.3 mg/kg; in assay [1] (po, read-out: ED50 (tremors), footnoted, mice, oral, no observed tremors at 32 mg./kg., highest dose tested), greater than 32 mg/kg. Moreover, the results for the concentration for half-maximal inhibition (IC50) in assay [2] and in assay [3] were 220 nM and 27 nM, respectively.

`CN[C@@H]1CC[C@@H](c2ccc(C(F)(F)F)cc2)c2ccccc21` (relative stereo) [Example 8]: the ED50 with mice (setting [6]) was greater than 10 mg/kg; in assay [1] (setting [7]), 10 to 32 mg/kg. For the same compound, the IC50 stood at 4400 nM in assay [2] and 690 nM in assay [3].

Turning to `CN[C@@H]1CC[C@@H](c2cccc(C(F)(F)F)c2)c2ccccc21` (relative stereo) [Example 9, Trans-(1S)(1R)-N-methyl-4-(3-trifluoromethylphenyl)-1,2,3,4-tetrahydro-1-naphthalenamine Maleate], the results for the ED50 (in the assay with mice (1 h); in assay [1] (setting [7])) were greater than 32 mg/kg and 10 to 32 mg/kg, respectively. The figures for the IC50 in assay [2] and in assay [3] were 2600 nM and 260 nM, respectively.

In the case of `CN[C@@H]1CC[C@@H](c2ccc(Cl)c(C(F)(F)F)c2)c2ccccc21` (relative stereo) [Example 10], the ED50 with mice (setting [6]) was less than 32 mg/kg; in assay [1] (setting [7]), 10 to 32 mg/kg. The IC50 in assay [2] was determined as 7300 nM.

On to `CN[C@@H]1CC[C@@H](c2ccc(Cl)cc2)c2ccc(Cl)cc21` (relative stereo) [Example 11, Trans-(1S)(1R)-N-methyl-4-(4-chlorophenyl)-7-chloro-1,2,3,4-tetrahydro-1-naphthalenamine Hydrochloride], for which, in the assay with mice (setting [6]), the ED50 worked out at 6.4 mg/kg. Moreover, the IC50 in assay [4] worked out at 160 nM; in assay [2], 45 nM; in assay [3] it was 28 nM.

Regarding `CN[C@@H]1CC[C@@H](c2ccc(Br)cc2)c2ccccc21` (relative stereo) [Example 12, Trans-(1S)(1R)-N-methyl-4-(4-bromophenyl)-1,2,3,4-tetrahydro-1-naphthalenamine Hydrochloride], the IC50 was 90 nM in assay [4], 80 nM in assay [2] and 29 nM in assay [3].

On to `CN[C@@H]1CC[C@@H](c2ccc(OC)cc2)c2ccccc21` (relative stereo) [Example 13, Trans-(1S)(1R)-N-methyl-4-(4-methoxyphenyl)-1,2,3,4-tetrahydro-1-naphthalenamine Hydrochloride], for which the IC50 in assay [2] came out at 400 nM; in assay [3] it was 150 nM.

As to `CN[C@@H]1CC[C@@H](c2ccccc2OC)c2ccccc21` (relative stereo) [Example 14], the ED50 (with mice (setting [6]); in assay [1] (setting [5])) was greater than 32 mg/kg in each case. The IC50 turned out to be 4500 nM in assay [4], 5700 nM in assay [2] and 480 nM in assay [3].

On to `CN[C@@H]1CC[C@@H](c2cccc(OC)c2)c2ccccc21` (relative stereo) [Example 15], for which the results for the IC50 in assay [4], in assay [2] and in assay [3] were 340 nM, 530 nM and 60 nM, respectively.

Regarding `CN[C@@H]1CC[C@@H](c2ccc(Cl)cc2Cl)c2ccccc21` (relative stereo) [Example 16, Trans-(1S)(1R)-N-methyl-4-(2,4-dichlorophenyl)-1,2,3,4-tetrahydro-1-naphthalenamine Hydrochloride], the IC50 in assay [2] turned out to be 6100 nM.

Take `CN[C@@H]1CC[C@@H](c2ccc(Cl)cc2)c2ccc(OC)cc21` (relative stereo) [Example 17, Trans-(1S)(1R)-N-methyl-4-(4-chlorophenyl)-7-methoxy-1,2,3,4-tetrahydro-1-naphthalenamine Hydrochloride]: the figures for the IC50 in assay [4], in assay [2] and in assay [3] were 150 nM, 42 nM and 17 nM, respectively.

For the compound `CN(C)[C@@H]1CC[C@@H](c2cccc(C(F)(F)F)c2)c2ccccc21` (relative stereo) [Example 18, Trans-(1S)(1R)-N,N-dimethyl-4-(3-trifluoromethylphenyl)-1,2,3,4-tetrahydro-1-naphthalenamine Maleate], the half-inhibitory concentration (IC50) in assay [4] was 220 nM; in assay [2], 6100 nM; in assay [3], 1400 nM.

For the compound `CN(C)[C@@H]1CC[C@@H](c2ccc(C(F)(F)F)cc2)c2ccccc21` (relative stereo) [Example 19], the ED50 in assay [1] (setting [7]) was in the range of 3.2 to 10 mg/kg. The half-maximal inhibitory concentration (IC50) in assay [2] came to 9800 nM; in assay [3] it was 4700 nM.

In the case of `CN(C)[C@@H]1CC[C@@H](c2ccc(Cl)cc2)c2ccccc21` (relative stereo) [Example 20], the IC50 in assay [2] was determined as 380 nM; in assay [3], 130 nM.

`CN(C)[C@@H]1CC[C@@H](c2ccc(Cl)c(Cl)c2)c2ccccc21` (relative stereo) [Example 20a] came in with a concentration for half-maximal inhibition (IC50) in assay [2] of 170 nM.

As to `CN[C@@H]1CC[C@@H](c2ccccc2)c2ccccc21` (relative stereo) [I, Trans-(1S)(1R)-N-- methyl-4-phenyl-1,2,3,4-tetrahydro-1-naphthalenamine hydrochloride, reference compound], the concentration for half-maximal inhibition (IC50) in assay [4] came out at 1500 nM; in assay [2], 210 nM; in assay [3], 37 nM.

With `CN(C)[C@@H]1CC[C@@H](c2ccccc2)c2ccccc21` (relative stereo) [II, Trans-(1S)(1R)-N,N-- dimethyl-4-phenyl-1,2,3,4-tetrahydro-1-naphthalenamine hydrochloride, reference compound], the concentration for half-maximal inhibition (IC50) in assay [2] worked out at 840 nM; in assay [3] it was 140 nM.

For `N[C@@H](Cc1c[nH]c2ccc(O)cc12)C(=O)O` [Example 5HTP, 5-hydroxytryptophan, reference compound], the “behavioral effects of 5HTP by itself” value in assay [1] (mice, 100 mg./kg. i.p. 5HTP alone) is recorded as “no clear behavioral effects”.

In the case of `COCCCC/C(=N\OCCN)c1ccc(C(F)(F)F)cc1` [fluvoxamine], the “selective block of uptake of serotonin (compared to norepinephrine blockade)” value in the assay with uptake of serotonin is listed as “selectively block the uptake of serotonin”.

Turning to `CN(C)C/C=C(/c1ccc(Br)cc1)c1cccnc1` [zimelidine], the “selective block of uptake of serotonin (compared to norepinephrine blockade)” value in the assay on uptake of serotonin was “selectively block the uptake of serotonin”.
